Common to all, as to format: biochemical
Assay [1] concerns the target T1, CDK2/CycE (Homo sapiens, UniProt P24941).
T1 construct: GST; purchased ProQinase GmbH (Freiburg, Germany); host or cells: insect cells (Sf9)
Nature of the assay: CDK2 HTRF Assay (assay 4). The note with it: 10 μM ATP, pIC50 = −log IC50 in molar concentration. An excerpt:
CDK2/CycE-inhibitory activity of compounds of the present invention was quantified employing the CDK2/CycE HTRF assay as described in the following paragraphs.
Recombinant fusion proteins of GST and human CDK2 and of GST and human CycE, expressed in insect cells (Sf9) and purified by Glutathion-Sepharose affinity chromatography, were purchase from ProQinase GmbH (Freiburg, Germany). As substrate for the kinase reaction biotinylated peptide biotin-Ttds-YISPLKSPYKISEG (C-terminus in amid form) was used which can be purchased e.g. form the company JERINI peptide technologies (Berlin, Germany).
CDK2/CycE was incubated for 60 min at 22° C. in the presence of different concentrations of test compounds in 5 μl assay buffer [50 mM Tris/HCl pH 8.0, 10 mM MgCl2, 1.0 mM dithiothreitol, 0.1 mM sodium ortho-vanadate, 10 μM adenosine-tri-phosphate (ATP), 0.75 μM substrate, 0.01% (v/v) Nonidet-P40 (Sigma), 1% (v/v) dimethylsulfoxide]. The concentration of CDK2/CycE was adjusted depending of the activity of the enzyme lot and was chosen appropriate to have the assay in the linear range, typical concentrations were in the range of 1 ng/ml. The reaction was stopped by the addition of 5 μl of a solution of HTRF detection reagents (0.2 μM streptavidine-XLent and 3.4 nM Phospho-(Ser) CDKs Substrate Antibody [product #2324B, Cell Signalling Technology, Danvers, Mass., USA} and 4 nM Prot-A-EuK [Protein A labeled with Europium Cryptate from Cis biointernational, France, product no. 61PRAKLB]) in an aqueous EDTA-solution (100 mM EDTA, 800 mM KF, 0.2% (w/v) bovine serum albumin in 100 mM HEPES/NaOH pH 7.0).
Background: Time-resolved FRET reads energy transfer from a long-lived donor to a nearby acceptor.

Assay [2] has as its target T2, preactivated Tie2 (Homo sapiens, UniProt Q02763).
T2 construct: A recombinant fusion protein of GST and the intracellular domains of Tie2; GST; made in house; host or cells: insect cells (Hi-5)
In words: Tie2-Kinase HTRF-Assay with kinase preactivation (assay 3). The note with it: 10 μM ATP, pIC50 = −log IC50 in molar concentration, read-out: Tie 2 activity (assay 3). Here is the method:
Assay 3: Tie2-Kinase HTRF-Assay with Kinase Preactivation
A recombinant fusion protein of GST and the intracellular domains of Tie2, expressed in insect cells (Hi-5) and purified by Glutathion-Sepharose affinity chromatography was used as kinase. As substrate for the kinase reaction the biotinylated peptide biotin-Ahx-EPKDDAYPLYSDFG (C-terminus in amid form) was used which can be purchased e.g. from the company Biosynthan GmbH (Berlin-Buch, Germany).
For activation, Tie2 was incubated at a conc. 12.5 ng/μl of for 20 min at 22° C. in the presence of 250 μM adenosine-tri-phosphate (ATP) in assay buffer [50 mM Hepes/NaOH pH 7, 10 mM MgCl2, 0.5 mM MnCl2, 1.0 mM dithiothreitol, 0.01% NP40, protease inhibitor mixture (“Complete w/o EDTA” from Roche, 1 tablet per 2.5 ml)].
For the subsequent kinase reaction, the preactivated Tie2 (0.5 ng/measurement point) was incubated for 20 min at 22° C. in the presence of 10 μM adenosine-tri-phosphate (ATP) and 1 μM substrate peptide (biotin-Ahx-EPKDDAYPLYSDFG-NH2) with different concentrations of test compounds (0 μM and concentrations in the range 0.001-20 μM) in 5 μl assay buffer [50 mM Hepes/NaOH pH 7, 10 mM MgCl2, 0.5 mM MnCl2, 0.1 mM sodium ortho-vanadate, 1.0 mM dithiothreitol, 0.01% NP40, protease inhibitor mixture (“Complete w/o EDTA” from Roche, 1 tablet per 2.5 ml), 1% (v/v) dimethylsulfoxide]. The reaction was stopped by the addition of 5 μl of an aqueous buffer (25 mM Hepes/NaOH pH 7.5, 0.28% (w/v) bovine serum albumin) containing EDTA (90 mM) and the HTRF (Homogeneous Time Resolved Fluorescence) detection reagents streptavidine-XLent (0.2 μM, from Cis Biointernational, Marcoule, France) and PT66-Eu-Chelate (0.3 ng/μl; a europium-chelate labelled anti-phospho-tyrosine antibody from Perkin Elmer).
(§1) The resulting mixture was incubated 1 h at 22° C. to allow the binding of the biotinylated phosphorylated peptide to the streptavidine-XLent and the PT66-Eu-Chelate. Subsequently the amount of phosphorylated substrate peptide was evaluated by measurement of the resonance energy transfer from the PT66-Eu-Chelate to the streptavidine-XLent. Therefore, the fluorescence emissions at 620 nm and 665 nm after excitation at 350 nm was measured in a HTRF reader, e.g. a Rubystar (BMG Labtechnologies, Offenburg, Germany) or a Viewlux (Perkin-Elmer). The ratio of the emissions at 665 nm and at […] was taken as the measure for the amount of phosphorylated substrate peptide. The data were normalised (enzyme reaction without inhibitor=0% inhibition, all other assay components but no enzyme=100% inhibition) and IC50 values were calculated by a 4 parameter fit using an inhouse software.

For assay [3], the target named is T3, Tie2 (Homo sapiens, UniProt Q02763).
T3 construct: A recombinant fusion protein of GST and the intracellular domains of Tie2; GST; made in house; host or cells: insect cells (Hi-5)
Nature of the assay: Tie2-Kinase HTRF-Assay without kinase preactivation (assay 2). The note with it: 10 μM ATP, pIC50 = −log IC50 in molar concentration, read-out: Tie 2 activity (assay 2).
Source text: Tie2-inhibitory activity of compounds of the present invention was quantified employing two Tie2 HTRF assay as described in the following paragraphs.
A recombinant fusion protein of GST and the intracellular domains of Tie2, expressed in insect cells (Hi-5) and purified by Glutathion-Sepharose affinity chromatography was used as kinase. Alternatively, commercially available GST-Tie2-fusion protein (Upstate Biotechnology, Dundee, Scotland) can be used as substrate for the kinase reaction the biotinylated peptide biotin-Ahx-EPKDDAYPLYSDFG (C-terminus in amid form) was used which can be purchased e.g. from the company Biosynthan GmbH (Berlin-Buch, Germany). Detection of phosphorylated product is achieved specifically by a trimeric detection complex consisting of the phosphorylated substrate, streptavidin-XLent (SA-XLent) which binds to biotin, and Europium Cryptate-labeled anti-phosphotyrosine antibody PT66 which binds to phosphorylated tyrosine.
Tie2 (3.5 ng/measurement point) was incubated for 60 min at 22° C. in the presence of 10 μM adenosine-tri-phosphate (ATP) and 1 μM substrate peptide (biotin-Ahx-EPKDDAYPLYSDFG-NH2) with different concentrations of test compounds (0 μM and concentrations in the range 0.001-20 μM) in 5 μl assay buffer [50 mM Hepes/NaOH pH 7, 10 mM MgCl2, 0.5 mM MnCl2, 1.0 mM dithiothreitol, 0.01% NP40, protease inhibitor mixture (“Complete w/o EDTA” from Roche, 1 tablet per 2.5 ml), 1% (v/v) dimethylsulfoxide]. The reaction was stopped by the addition of 5 μl of an aqueous buffer (25 mM Hepes/NaOH pH 7.5, 0.28% (w/v) bovine serum albumin) containing EDTA (90 mM) and the HTRF (Homogeneous Time Resolved Fluorescence) detection reagents streptavidine-XLent (0.2 μM, from Cis Biointernational, Marcoule, France) and PT66-Eu-Chelate (0.3 ng/μl; a europium-chelate labelled anti-phospho-tyrosine antibody from Perkin Elmer).
as §1

Bounds are passed on as bounds.

T2 sequence (Q02763 770-1124 limits assumed): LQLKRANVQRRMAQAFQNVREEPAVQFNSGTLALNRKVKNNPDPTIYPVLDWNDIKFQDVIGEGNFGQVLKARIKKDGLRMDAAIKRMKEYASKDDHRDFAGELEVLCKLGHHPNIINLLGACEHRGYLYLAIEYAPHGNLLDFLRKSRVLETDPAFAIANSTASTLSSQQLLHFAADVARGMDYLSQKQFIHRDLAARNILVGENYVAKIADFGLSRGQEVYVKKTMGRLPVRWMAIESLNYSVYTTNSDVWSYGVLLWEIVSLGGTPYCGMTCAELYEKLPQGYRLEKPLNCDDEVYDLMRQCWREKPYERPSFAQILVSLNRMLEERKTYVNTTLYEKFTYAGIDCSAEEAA
T3 sequence (Q02763 770-1124 limits assumed): as above

For the compound `CS(=N)(=O)c1cccc(Nc2ncc(-c3ccc(NC(=O)Nc4cc(C(F)(F)F)ccc4F)c(F)c3)c(NCCCN3CCOCC3)n2)c1` (racemic) [Example 43, 1-[2-Fluoro-4-(2-{[3-(RS)-(S-methylsulfonimidoyl)phenyl]amino}-4-[(3-morpholin-4-ylpropyl)amino]-pyrimidin-5-yl)phenyl]-3-[2-fluoro-5-(trifluoromethyl)-phenyl]urea], the IC50 in assay [1] is more than 10000 nM; in assay [2] it was less than 100 nM; in assay [3], less than 100 nM.
On to `CNc1nc(Nc2cccc(S(C)(=N)=O)c2)ncc1-c1ccc(NC(=O)Nc2cc(C(F)(F)F)ccc2F)c(F)c1` (racemic) [Example 49, 1-{2-Fluoro-4-[4-(methylamino)-2-{[3-(RS)-(S-methylsulfonimidoyl)phenyl]amino}-pyrimidin-5-yl]phenyl}-3-[2-fluoro-5-(trifluoromethyl)-phenyl]urea], for which the results for the IC50 in assay [1], in assay [2] and in assay [3] were more than 10000 nM, less than 100 nM and less than 100 nM, respectively.
Regarding `COc1nc(Nc2cccc(S(C)(=N)=O)c2)ncc1-c1ccc(NC(=O)Nc2cc(C(F)(F)F)ccc2F)c(F)c1` (racemic) [Example 45, 1-[2-Fluoro-4-(4-methoxy-2-{[3-(RS)-(S-methylsulfon-imidoyl)phenyl]-amino}pyrimidin-5-yl)phenyl]-3-[2-fluoro-5-(trifluoromethyl)phenyl]urea], the IC50 in assay [1] is more than 10000 nM; in assay [2], less than 100 nM; in assay [3], less than 100 nM.
In the case of `C[C@H](CO)Nc1nc(Nc2cccc(S(C)(=N)=O)c2)ncc1-c1ccc(NS(=O)(=O)c2cccc(Cl)c2Cl)c(F)c1` (mixture of isomers) [Example 42, 2,3-Dichloro-N-[2-fluoro-4-(4-{[(R)-2-hydroxy-1-methylethyl]amino}-2-{[3-(RS)-(S-methylsulfonimidoyl)phenyl]amino}-pyrimidin-5-yl)phenyl]benzene-sulfonamide], the IC50 in assay [1] is more than 10000 nM; in assay [2], less than 100 nM; in assay [3], 100 to 1000 nM.
On the same counts, the results for `CCOC(=O)N=S(C)(=O)c1cccc(Nc2ncc(-c3ccc(NS(=O)(=O)c4cccc(Cl)c4Cl)c(F)c3)c(N[C@H](C)CO)n2)c1` (mixture of isomers) [Example 13, 2,3-Dichloro-N-{4-[2-({3-[(RS)-N-(ethoxycarbonyl)-S-methylsulfonimidoyl]phenyl}amino)-4-{[(R)-2-hydroxy-1-methylethyl]amino}-pyrimidin-5-yl]-2-fluorophenyl}-benzenesulfonamide] are more than 10000 nM, 100 to 1000 nM and 100 to 1000 nM.
On the same counts, the results for `COc1nc(Nc2cccc(S(C)(=N)=O)c2)ncc1-c1ccc(NS(=O)(=O)c2cccc(Cl)c2Cl)c(F)c1` (racemic) [Example 46, 2,3-Dichloro-N-[2-fluoro-4-(4-methoxy-2-{[3-(RS)-(S-methylsulfonimidoyl)phenyl]amino}pyrimi-din-5-yl)phenyl]benzenesul-fonamide] are more than 10000 nM, 100 to 1000 nM and 100 to 1000 nM.
On the same counts, the results for `CCOC(=O)N=S(C)(=O)c1ccc(Nc2ncc(-c3ccc(NC(=O)Nc4cccc(C(F)(F)F)c4)cc3)c(N[C@H](C)CO)n2)cc1` (mixture of isomers) [Example 7, 1-{4-[2-({4-[(RS)-N-(Ethoxycarbonyl)-S-methylsulfonimidoyl]phenyl}amino)-4-{[(R)-2-hydroxy-1-methylethyl]amino}-pyrimidin-5-yl]-phenyl}-3-[3-(trifluoromethyl)-phenyl]urea] are more than 10000 nM, less than 100 nM and less than 100 nM.
With `CCOC(=O)N=S(C)(=O)c1cccc(Nc2ncc(-c3ccc(NC(=O)C4(c5ccccc5)CC4)cc3)c(N[C@H](C)CO)n2)c1` (mixture of isomers) [Example 9, N-{4-[2-({3-[(RS)-N-(Ethoxycarbonyl)-S-methylsulfonimidoyl]phenyl}amino)-4-{[(R)-2-hydroxy-1-methylethyl]amino}-pyrimidin-5-yl]phenyl}-1-phenylcyclopropane-carboxamide], the values for the IC50 in assay [1], in assay [2] and in assay [3] were more than 10000 nM, 100 to 1000 nM and 100 to 1000 nM, respectively.
As to `CCOC(=O)N=S(C)(=O)c1cccc(Nc2ncc(-c3ccc(NS(=O)(=O)c4cccc(Cl)c4Cl)cc3)c(N[C@H](C)CO)n2)c1` (mixture of isomers) [Example 2, 2,3-Dichloro-N-{4-[2-({3-[(RS)-N-(ethoxycarbonyl)-S-methylsulfonimidoyl]phenyl}amino)-4-{[(R)-2-hydroxy-1-methylethyl]amino}pyrimidin-5-yl]-phenyl}benzenesulfonamide], the IC50 in assay [1] is more than 10000 nM; in assay [2], 100 to 1000 nM; in assay [3], 100 to 1000 nM.
`CCOC(=O)N=S(C)(=O)c1cccc(Nc2ncc(-c3ccc(NC(=O)Nc4cc(C(F)(F)F)ccc4F)c(F)c3)c(NCCN3CCN(C)CC3)n2)c1` (racemic) [Example 28, 1-{4-[2-({3-[(RS)-N-(Ethoxycarbonyl)-S-methylsulfonimidoyl]phenyl}amino)-4-{[2-(N-methyl-piperazin-4-yl)ethyl]amino}pyri-midin-5-yl]-2-fluorophenyl}-3-[2-fluoro-5-(trifluoromethyl)-phenyl]urea]: the IC50 in assay [1] is more than 10000 nM; in assay [2] it was 100 to 1000 nM; in assay [3], less than 100 nM.
